pIC50: −log10 of the molar value. “Also recorded” adds a separate entry of the source.
What was measured:
Cannabinoid CB1 = Cannabinoid CB1 (Homo sapiens, UniProt P21554); assay: Lead Profiling Screen radioligand binding
Interleukin IL-1 = Interleukin IL-1 (Mus musculus, UniProt P13504); assay: Lead Profiling Screen radioligand binding
Adenosine A2A = Adenosine A2A (Homo sapiens, UniProt P29274); assay: Lead Profiling Screen radioligand binding
[1] = system: Calcium Channel L-Type, Benzothiazepine; assay: Lead Profiling Screen radioligand binding; conditions: 10 μM ML352
Adenosine A1 = Adenosine A1 (Homo sapiens, UniProt P30542); assay: Lead Profiling Screen radioligand binding
[2] = intrinsic clearance in hepatic microsomes; type: in vitro ADME; conditions: human; predicted hepatic clearance from microsomal CLint
Sigma σ1 = Sigma σ1 (Homo sapiens, UniProt Q99720); assay: Lead Profiling Screen radioligand binding
hERG potassium channel = hERG potassium channel (Homo sapiens, UniProt Q12809); assay: Lead Profiling Screen radioligand binding
[3] = target: Leukotriene, Cysteinyl CysLT1 (Homo sapiens, UniProt Q9Y271); assay: Lead Profiling Screen radioligand binding
[4] = intrinsic clearance in hepatic microsomes; type: in vitro ADME; conditions: rat; predicted hepatic clearance from microsomal CLint
[5] = brain tissue distribution in Sprague-Dawley rats; type: in vivo; conditions: male, rat, brain/plasma, iv, 1 mg/kg
[6] = target: Transporter, Dopamine (DAT) (Homo sapiens, UniProt Q01959); assay: Lead Profiling Screen radioligand binding
CHT = CHT (Mus musculus, UniProt Q8BGY9); assay: choline uptake in mouse forebrain synaptosomes; type: biochemical; conditions: ML352 at 300 nM in saturation choline transport assays
Adrenergic α1A = Adrenergic α1A (Rattus norvegicus, UniProt P43140); assay: Lead Profiling Screen radioligand binding
Neuropeptide Y Y2 = Neuropeptide Y Y2 (Homo sapiens, UniProt P49146); assay: Lead Profiling Screen radioligand binding
[7] = pharmacokinetics in male Sprague-Dawley rats; conditions: rat
AChE = AChE (Mus musculus, UniProt P21836); assay: AChE activity in mouse forebrain extracts; type: biochemical; conditions: concentrations well above the CHT Ki
[8] = target: norepinephrine transporter (NET) (Homo sapiens, UniProt P23975); assay: [3H]NE uptake in HEK293 hNET cells; type: cell-based; conditions: transfected HEK 293 cells
[9] = target: Sertonin (5-Hydroxytrptamine) 5-HT2B (Homo sapiens, UniProt P41595); assay: Lead Profiling Screen radioligand binding
Dopamine D42 = Dopamine D42 (Homo sapiens, UniProt P21917, DEL265-296); assay: Lead Profiling Screen radioligand binding
[10] = target: Nicotinic Acetylcholine α1, Bungarotoxin (Homo sapiens, UniProt P02708+P07510+Q07001); assay: Lead Profiling Screen radioligand binding
Glutamate, Kainate = assay: Lead Profiling Screen radioligand binding; conditions: 10 μM ML352
[11] = target: Platelet Activating Factor (PAF) (Homo sapiens, UniProt P25105); assay: Lead Profiling Screen radioligand binding
[12] = system: nontransfected HEK 293 cells; assay: [3H]choline accumulation in nontransfected HEK 293 cells; type: cell-based, human; conditions: 5 μM ML352; data not shown
P450 2C9 = P450 2C9 (Homo sapiens, UniProt P11712)
WT hCHT = target: T1, WT hCHT (Homo sapiens, UniProt Q9GZV3); assay: cell-surface biotinylation, CHT surface expression in WT hCHT HEK 293 cells; type: cell-based; conditions: 5 μM, 15 min incubation
T1 sequence (Q9GZV3 1-580): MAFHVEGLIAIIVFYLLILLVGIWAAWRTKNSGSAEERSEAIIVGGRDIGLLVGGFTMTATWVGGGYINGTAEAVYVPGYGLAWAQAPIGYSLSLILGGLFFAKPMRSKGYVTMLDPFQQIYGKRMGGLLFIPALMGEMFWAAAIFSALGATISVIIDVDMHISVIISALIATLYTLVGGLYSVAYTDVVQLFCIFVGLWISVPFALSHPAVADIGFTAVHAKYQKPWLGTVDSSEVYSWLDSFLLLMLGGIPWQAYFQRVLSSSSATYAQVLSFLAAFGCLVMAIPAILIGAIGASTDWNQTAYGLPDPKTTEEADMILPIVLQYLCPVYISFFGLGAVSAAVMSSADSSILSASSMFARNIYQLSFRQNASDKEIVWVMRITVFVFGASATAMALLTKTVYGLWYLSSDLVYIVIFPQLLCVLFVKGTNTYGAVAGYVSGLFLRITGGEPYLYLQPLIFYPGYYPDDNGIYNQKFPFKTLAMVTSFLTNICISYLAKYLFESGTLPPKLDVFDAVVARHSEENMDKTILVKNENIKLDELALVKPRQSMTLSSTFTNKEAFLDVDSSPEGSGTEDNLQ

Muscarinic M2 = Muscarinic M2 (Homo sapiens, UniProt P08172); assay: Lead Profiling Screen radioligand binding
[13] = target: Epidermal Growth Factor (EGF) (Homo sapiens, UniProt P00533); assay: Lead Profiling Screen radioligand binding
Adrenergic α1B = Adrenergic α1B (Rattus norvegicus, UniProt P15823); assay: Lead Profiling Screen radioligand binding
Muscarinic M1 = Muscarinic M1 (Homo sapiens, UniProt P11229); assay: Lead Profiling Screen radioligand binding
[14] = system: GABAA, Flunitrazepam, Central; assay: Lead Profiling Screen radioligand binding; conditions: 10 μM ML352
Bradykinin B2 = Bradykinin B2 (Homo sapiens, UniProt P30411); assay: Lead Profiling Screen radioligand binding
Histamine, H2 = Histamine, H2 (Homo sapiens, UniProt P25021); assay: Lead Profiling Screen radioligand binding
Bradykinin B1 = Bradykinin B1 (Homo sapiens, UniProt P46663); assay: Lead Profiling Screen radioligand binding
Sequence of Bradykinin B1 (P46663 whole entry): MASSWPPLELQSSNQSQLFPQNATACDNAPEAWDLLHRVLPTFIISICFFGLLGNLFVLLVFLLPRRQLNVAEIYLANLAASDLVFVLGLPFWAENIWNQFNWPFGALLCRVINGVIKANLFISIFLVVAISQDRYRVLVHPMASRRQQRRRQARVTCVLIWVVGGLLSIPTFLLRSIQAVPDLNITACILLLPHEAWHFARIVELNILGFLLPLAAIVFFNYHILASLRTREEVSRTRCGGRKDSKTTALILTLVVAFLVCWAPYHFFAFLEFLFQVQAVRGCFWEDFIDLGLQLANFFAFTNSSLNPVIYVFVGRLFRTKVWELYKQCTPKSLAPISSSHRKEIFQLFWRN

Sequence of AChE (P21836 32-614): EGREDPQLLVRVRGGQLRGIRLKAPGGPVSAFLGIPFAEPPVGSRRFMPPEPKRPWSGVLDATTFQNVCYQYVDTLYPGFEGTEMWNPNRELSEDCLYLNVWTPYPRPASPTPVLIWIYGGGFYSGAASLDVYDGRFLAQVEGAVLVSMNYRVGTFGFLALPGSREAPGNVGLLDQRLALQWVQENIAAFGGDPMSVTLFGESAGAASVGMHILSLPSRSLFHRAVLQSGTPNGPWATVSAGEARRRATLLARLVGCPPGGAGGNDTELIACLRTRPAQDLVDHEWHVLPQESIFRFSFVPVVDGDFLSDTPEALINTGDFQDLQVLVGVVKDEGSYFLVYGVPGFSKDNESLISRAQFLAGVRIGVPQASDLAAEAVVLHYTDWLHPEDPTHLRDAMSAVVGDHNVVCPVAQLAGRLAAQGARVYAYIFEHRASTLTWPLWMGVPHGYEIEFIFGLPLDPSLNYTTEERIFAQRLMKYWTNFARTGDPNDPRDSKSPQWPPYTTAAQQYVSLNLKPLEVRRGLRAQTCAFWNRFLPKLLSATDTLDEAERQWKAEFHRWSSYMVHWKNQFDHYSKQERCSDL
Sequence of Adrenergic α1B (P15823 whole entry): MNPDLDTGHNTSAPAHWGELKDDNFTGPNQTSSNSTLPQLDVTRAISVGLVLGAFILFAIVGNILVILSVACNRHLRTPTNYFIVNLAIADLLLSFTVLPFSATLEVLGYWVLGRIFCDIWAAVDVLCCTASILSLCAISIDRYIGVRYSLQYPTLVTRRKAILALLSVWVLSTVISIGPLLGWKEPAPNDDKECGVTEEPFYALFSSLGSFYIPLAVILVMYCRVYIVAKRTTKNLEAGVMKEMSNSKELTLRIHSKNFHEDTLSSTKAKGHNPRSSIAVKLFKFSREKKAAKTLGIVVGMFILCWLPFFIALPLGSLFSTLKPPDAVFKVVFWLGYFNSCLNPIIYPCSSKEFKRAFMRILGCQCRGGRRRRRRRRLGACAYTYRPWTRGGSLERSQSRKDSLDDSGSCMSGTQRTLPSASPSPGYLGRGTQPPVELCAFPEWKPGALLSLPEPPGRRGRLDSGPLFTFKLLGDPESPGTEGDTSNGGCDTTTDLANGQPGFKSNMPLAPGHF
Sequence of P450 2C9 (P11712 whole entry): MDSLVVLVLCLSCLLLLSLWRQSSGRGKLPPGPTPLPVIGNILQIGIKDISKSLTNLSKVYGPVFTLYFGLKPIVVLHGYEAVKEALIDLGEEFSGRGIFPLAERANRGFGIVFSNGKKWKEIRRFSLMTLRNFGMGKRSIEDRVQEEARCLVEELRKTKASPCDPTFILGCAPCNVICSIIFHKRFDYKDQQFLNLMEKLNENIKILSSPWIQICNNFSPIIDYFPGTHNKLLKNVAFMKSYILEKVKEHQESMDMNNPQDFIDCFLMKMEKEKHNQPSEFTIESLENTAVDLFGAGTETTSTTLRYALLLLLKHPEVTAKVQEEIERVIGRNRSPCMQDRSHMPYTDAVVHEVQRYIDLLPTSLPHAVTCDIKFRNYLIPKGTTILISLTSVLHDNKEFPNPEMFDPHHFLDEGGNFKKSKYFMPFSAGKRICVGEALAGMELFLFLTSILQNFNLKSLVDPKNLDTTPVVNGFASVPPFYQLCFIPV
Sequence of Cannabinoid CB1 (P21554 whole entry): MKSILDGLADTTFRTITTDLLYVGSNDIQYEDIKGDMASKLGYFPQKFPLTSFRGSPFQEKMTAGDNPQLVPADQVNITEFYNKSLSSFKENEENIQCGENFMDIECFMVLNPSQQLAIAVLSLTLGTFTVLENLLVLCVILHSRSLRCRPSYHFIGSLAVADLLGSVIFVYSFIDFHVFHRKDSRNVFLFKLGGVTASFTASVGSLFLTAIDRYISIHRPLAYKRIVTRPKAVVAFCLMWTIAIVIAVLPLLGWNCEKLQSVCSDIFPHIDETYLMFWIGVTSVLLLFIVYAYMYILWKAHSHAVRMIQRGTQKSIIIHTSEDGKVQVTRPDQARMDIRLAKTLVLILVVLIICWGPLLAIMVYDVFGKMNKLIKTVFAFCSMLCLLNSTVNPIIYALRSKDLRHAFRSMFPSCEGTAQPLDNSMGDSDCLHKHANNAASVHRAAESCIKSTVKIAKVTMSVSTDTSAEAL
Sequence of Bradykinin B2 (P30411 whole entry): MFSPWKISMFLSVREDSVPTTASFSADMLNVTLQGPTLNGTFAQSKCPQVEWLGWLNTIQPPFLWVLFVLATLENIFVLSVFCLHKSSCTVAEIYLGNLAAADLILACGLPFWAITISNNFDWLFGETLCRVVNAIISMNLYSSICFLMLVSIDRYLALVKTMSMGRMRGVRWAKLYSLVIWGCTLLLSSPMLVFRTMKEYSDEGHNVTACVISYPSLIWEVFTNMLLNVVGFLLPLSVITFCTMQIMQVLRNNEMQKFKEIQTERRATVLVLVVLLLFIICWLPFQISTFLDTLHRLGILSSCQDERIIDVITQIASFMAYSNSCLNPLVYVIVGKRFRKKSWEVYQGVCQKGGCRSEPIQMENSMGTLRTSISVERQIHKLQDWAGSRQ
Sequence of Adrenergic α1A (P43140 whole entry): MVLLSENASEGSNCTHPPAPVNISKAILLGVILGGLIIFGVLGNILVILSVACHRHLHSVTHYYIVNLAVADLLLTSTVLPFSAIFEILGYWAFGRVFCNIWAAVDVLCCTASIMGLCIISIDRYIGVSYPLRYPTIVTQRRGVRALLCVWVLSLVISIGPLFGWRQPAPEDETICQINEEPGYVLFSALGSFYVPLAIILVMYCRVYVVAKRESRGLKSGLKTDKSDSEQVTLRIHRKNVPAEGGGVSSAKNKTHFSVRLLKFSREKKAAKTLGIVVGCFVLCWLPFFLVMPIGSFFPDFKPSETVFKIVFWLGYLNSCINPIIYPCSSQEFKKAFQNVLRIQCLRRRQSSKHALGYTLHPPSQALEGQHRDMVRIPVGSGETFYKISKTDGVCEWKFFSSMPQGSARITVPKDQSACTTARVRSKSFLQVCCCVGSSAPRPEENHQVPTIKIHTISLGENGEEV
Sequence of Platelet Activating Factor (PAF) (P25105 whole entry): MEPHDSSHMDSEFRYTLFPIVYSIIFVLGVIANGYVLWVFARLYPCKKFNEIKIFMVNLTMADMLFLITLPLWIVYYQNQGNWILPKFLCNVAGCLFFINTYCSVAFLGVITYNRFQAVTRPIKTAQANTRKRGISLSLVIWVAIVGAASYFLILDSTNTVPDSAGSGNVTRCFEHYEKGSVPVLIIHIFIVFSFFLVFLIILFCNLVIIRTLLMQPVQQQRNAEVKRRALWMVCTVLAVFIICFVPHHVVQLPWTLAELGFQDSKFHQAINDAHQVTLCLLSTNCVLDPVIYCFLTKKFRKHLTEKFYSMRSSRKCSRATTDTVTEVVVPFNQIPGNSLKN
Sequence of Adenosine A1 (P30542 whole entry): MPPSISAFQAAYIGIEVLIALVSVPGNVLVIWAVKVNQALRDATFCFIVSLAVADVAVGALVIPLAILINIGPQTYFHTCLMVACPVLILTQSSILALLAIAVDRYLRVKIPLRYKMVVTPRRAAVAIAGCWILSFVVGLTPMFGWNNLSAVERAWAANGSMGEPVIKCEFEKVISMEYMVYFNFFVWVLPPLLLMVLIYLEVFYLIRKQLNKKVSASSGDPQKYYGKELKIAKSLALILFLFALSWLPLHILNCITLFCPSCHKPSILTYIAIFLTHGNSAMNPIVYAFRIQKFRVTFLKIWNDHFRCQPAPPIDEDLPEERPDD
Sequence of Interleukin IL-1 (P13504 20-576): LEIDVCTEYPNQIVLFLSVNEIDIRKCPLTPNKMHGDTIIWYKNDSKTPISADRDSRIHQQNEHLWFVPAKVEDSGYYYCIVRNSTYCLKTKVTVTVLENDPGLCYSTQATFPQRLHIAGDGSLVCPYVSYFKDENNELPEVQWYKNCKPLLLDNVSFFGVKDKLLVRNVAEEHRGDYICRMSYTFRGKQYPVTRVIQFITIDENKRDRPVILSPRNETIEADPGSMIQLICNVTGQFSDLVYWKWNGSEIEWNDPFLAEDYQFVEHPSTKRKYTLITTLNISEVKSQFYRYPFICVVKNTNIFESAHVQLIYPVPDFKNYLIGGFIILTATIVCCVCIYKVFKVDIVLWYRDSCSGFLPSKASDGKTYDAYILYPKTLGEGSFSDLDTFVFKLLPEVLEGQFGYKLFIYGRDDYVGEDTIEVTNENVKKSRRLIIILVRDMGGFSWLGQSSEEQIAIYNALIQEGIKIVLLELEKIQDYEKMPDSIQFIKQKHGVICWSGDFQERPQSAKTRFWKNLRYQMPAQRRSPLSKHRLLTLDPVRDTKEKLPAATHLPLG
Sequence of Sigma σ1 (Q99720 whole entry): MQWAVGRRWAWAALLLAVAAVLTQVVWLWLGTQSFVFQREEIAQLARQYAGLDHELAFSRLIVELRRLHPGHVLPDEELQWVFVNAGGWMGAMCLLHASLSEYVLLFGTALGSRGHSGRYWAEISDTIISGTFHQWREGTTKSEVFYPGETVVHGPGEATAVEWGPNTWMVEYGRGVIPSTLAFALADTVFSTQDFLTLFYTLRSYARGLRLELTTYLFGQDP

In the case of `COc1ccc(C(=O)NCc2cc(C(C)C)no2)cc1OC1CCN(C)CC1` [ML352, N-((3-isopropylisoxazol-5-yl)methyl)-4-methoxy-3-((1-methylpiperidin-4-yl)oxy)benzamide], the inhibition at 10 µM (Cannabinoid CB1) was 4%, the inhibition at 10 µM (Interleukin IL-1) was -2% and the inhibition at 10 µM (Adenosine A2A) was 0%. The “% inhibition” value [1] was 3%, the inhibition at 10 µM (Adenosine A1) was -5% and the CLhep [2] was 6.9 mL/min/kg. For the same compound, the inhibition at 10 µM (Sigma σ1) was -1%, the inhibition at 10 µM (hERG potassium channel) was 16% and the inhibition at 10 µM [3] was -3%. The CLhep [4] was 40.3 mL/min/kg, the Kp at […] [5] was 0.2 and the inhibition at 10 µM [6] was 4%. For the same compound, the “mode of choline uptake inhibition” value (CHT) was “noncompetitively inhibits”, the inhibition at 10 µM (Adrenergic α1A) was 23% and the inhibition at 10 µM (Neuropeptide Y Y2) was 7%. It also gave a clearance ([7]; in vivo, iv, 1 mg/kg) of 107 mL/min/kg, a half-life ([7]; in vivo, iv, 1 mg/kg) of 30 min and an AUC ([7]; plasma, iv, 1 mg/kg) of 150 ng·h/mL. It also gave an AUC ([7]; plasma, po, 2.3 mg/kg) of 77.5 ng·h/mL, a Cmax ([7]; plasma, po, 2.3 mg/kg) of 32.6 ng/mL and a Tmax ([7]; plasma, po, 2.3 mg/kg) of 15 min. The bioavailability ([7]; plasma, po, 2.3 mg/kg) was 22%, the “inhibition of AChE” value (AChE) was “no ability; also recorded: lacks activity; also recorded: no inhibition” and the “inhibitory activity at NET” value [8] was “lack of inhibitory activity”. It also gave an inhibition at 10 µM [9] of -7%, an inhibition at 10 µM (Dopamine D42) of -3% and an inhibition at 10 µM [10] of 7%. For the same compound, the “% inhibition” value (Glutamate, Kainate) was “–2%”, the inhibition at 10 µM [11] was -4% and the “effect on [3H]choline accumulation in nontransfected HEK 293 cells” value [12] was under 20%. For the same compound, the pIC50 (P450 2C9) was under 4.52, the “increase in steady-state hCHT surface expression” value (WT hCHT) was 43.4 ± 4.7 % of control and the inhibition at 10 µM (Muscarinic M2) was 12%. It also gave an inhibition at 10 µM [13] of 5%, an inhibition at 10 µM (Adrenergic α1B) of 3% and an inhibition at 10 µM (Muscarinic M1) of 32%. For the same compound, the “% inhibition” value [14] was 6%, the inhibition at 10 µM (Bradykinin B2) was -3% and the inhibition at 10 µM (Histamine, H2) was 20%. For the same compound, the inhibition at 10 µM (Bradykinin B1) was 6%.

Reference: publication PMC4367188 (ACS Chemical Neuroscience, 2015)
